Consider eight compounds from patent US20230066011A1, “PYRROLOPYRIMIDINE DERIVATIVE, AND PHARMACEUTICAL COMPOSITION FOR PREVENTING OR TREATING PROTEIN KINASE-RELATED DISEASE COMPRISING SAME AS ACTIVE INGREDIENT” (VORONOI CO., LTD., priority 2019, published 2023).

The term IC50 denotes the point on the concentration scale where inhibition reaches its midpoint.

Holding throughout (assay type): biochemical
One experiment deals with LRRK2 (Homo sapiens, UniProt Q5S007). Put plainly: LRRK2 enzyme inhibition, ADP-Glo kinase assay. Also noted: purchased Invitrogen PR8604B. Conditions: ATP 10 μM. The method in brief: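 Purified human LRRK2 (25 ng) with 10 μM ATP and 0.2 μg substrate in 40 mM Tris-HCl pH 7.4, 20 mM MgCl2, 0.5 mg/mL BSA, 50 μM DTT, 2 h at 25° C. ADP-Glo luminescence; 12-point compound series from 50 μM final; IC50 relative to solvent control.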
LRRK2, sequence (Q5S007 970-2527 limits assumed): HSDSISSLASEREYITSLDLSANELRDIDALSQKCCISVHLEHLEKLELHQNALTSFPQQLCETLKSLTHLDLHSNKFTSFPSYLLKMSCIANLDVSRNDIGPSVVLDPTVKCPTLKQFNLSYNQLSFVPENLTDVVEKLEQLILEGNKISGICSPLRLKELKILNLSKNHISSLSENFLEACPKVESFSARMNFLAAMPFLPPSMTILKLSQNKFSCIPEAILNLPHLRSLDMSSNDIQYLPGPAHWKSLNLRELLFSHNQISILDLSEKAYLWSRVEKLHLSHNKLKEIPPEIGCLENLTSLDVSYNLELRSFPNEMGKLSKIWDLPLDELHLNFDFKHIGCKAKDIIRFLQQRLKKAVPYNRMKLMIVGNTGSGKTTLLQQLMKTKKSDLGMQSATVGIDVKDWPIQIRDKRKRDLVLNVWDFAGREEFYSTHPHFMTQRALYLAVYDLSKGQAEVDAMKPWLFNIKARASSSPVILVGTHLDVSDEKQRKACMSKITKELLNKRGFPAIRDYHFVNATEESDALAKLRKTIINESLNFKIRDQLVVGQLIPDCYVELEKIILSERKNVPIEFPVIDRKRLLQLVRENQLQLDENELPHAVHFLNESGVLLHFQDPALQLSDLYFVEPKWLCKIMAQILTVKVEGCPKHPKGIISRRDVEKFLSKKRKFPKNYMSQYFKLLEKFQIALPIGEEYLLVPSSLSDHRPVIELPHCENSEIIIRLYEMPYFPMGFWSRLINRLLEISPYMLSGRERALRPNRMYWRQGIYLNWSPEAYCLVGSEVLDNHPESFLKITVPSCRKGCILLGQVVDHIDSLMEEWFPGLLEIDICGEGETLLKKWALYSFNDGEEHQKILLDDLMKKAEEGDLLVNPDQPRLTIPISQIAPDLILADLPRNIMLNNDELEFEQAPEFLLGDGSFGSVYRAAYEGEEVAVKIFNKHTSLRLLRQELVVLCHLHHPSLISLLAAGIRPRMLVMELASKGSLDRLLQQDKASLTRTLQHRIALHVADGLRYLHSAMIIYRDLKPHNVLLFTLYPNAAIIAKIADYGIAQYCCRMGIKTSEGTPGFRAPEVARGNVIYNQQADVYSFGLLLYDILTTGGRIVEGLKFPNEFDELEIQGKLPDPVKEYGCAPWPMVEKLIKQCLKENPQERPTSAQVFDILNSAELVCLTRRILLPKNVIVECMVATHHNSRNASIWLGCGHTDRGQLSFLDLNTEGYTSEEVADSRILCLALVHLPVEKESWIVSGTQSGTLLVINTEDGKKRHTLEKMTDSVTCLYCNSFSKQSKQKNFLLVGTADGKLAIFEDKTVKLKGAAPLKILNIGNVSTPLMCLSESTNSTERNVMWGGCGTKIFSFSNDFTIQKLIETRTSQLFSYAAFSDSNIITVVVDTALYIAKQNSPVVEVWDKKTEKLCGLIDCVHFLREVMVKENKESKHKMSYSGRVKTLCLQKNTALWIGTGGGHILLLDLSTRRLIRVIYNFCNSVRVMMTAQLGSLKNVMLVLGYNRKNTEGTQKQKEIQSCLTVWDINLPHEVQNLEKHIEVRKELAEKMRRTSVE
(In general: ADP-Glo turns the ADP formed in a reaction into a luminescent signal.)

The next experiment concerns the target T1, human GST-DYRK1A (Homo sapiens, UniProt Q13627).
T1 construct: purified human GST-DYRK1A (full length, Thermo Scientifics) enzyme; purchased Thermo Scientifics
Put plainly: GST-DYRK1A enzyme inhibition, ADP-Glo kinase assay. The following applies: ATP 10 μM, GST-DYRK1A full length, read-out: DYRK1 IC50. The method in brief:
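Full-length human GST-DYRK1A (10 ng) with 10 μM ATP and specific substrate in 40 mM Tris-HCl pH 7.4, 20 mM MgCl2, 0.5 mg/mL BSA, 50 μM DTT, 1 h at 25 °C. ADP formation read by ADP-Glo luminescence relative to solvent control; IC50 from three data sets.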

The next experiment addresses LRRK2 (G2019S) (Homo sapiens, UniProt Q5S007, G2019S). Put plainly: LRRK2 G2019S enzyme inhibition, ADP-Glo kinase assay. Also noted: purchased SignalChem L10-12GG. The following applies: ATP 25 μM. A digest of the protocol:
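Purified human LRRK2 G2019S (16 ng) with 25 μM ATP and 0.2 μg substrate, 2 h at 25° C. in Tris-HCl pH 7.4, MgCl2, BSA, DTT buffer; compounds at 12 final concentrations, 50 μM down to 0.000001024 μM. ADP-Glo luminescence versus solvent control gave IC50.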

LRRK2 (G2019S), sequence (Q5S007 970-2527 G2019S limits assumed): as the sequence (Q5S007 970-2527 limits assumed) above, with G1050S counted along it

`CNc1nc(Nc2ccc(S(=O)(=O)N3CCC(N4CCOCC4)CC3)c3c2OCCO3)nc2[nH]cc(C(F)(F)F)c12` [Example 219, N^4-methyl-N^2-(8-((4-morpholinopiperidin-1-yl)sulfonyl)-2,3-dihydrobenzo[b][1,4]dioxin-5-yl)-5-(trifluoromethyl)-7H-pyrrolo[2,3-d]pyrimidine-2,4-diamine]: the IC50 on LRRK2, at human GST-DYRK1A and against LRRK2 (G2019S) was below 100 nM each time.
Regarding `COCCNc1nc(Nc2ccc(C(=O)N3CCC(N4CCOCC4)CC3)c3c2OCC3)nc2[nH]cc(C(F)(F)F)c12` [Example 443, (7-((4-((2-methoxyethyl)amino)-5-(trifluoromethyl)-7H-pyrrolo[2,3-d]pyrimidin-2-yl)amino)-2,3-dihydrobenzo-furan-4-yl)(4-morpho-linopiperidin-1-yl)methanone], the IC50 on LRRK2, on human GST-DYRK1A and against LRRK2 (G2019S) was below 100 nM each time.
`CNc1nc(Nc2ccc(C(=O)N3CCC(N4CCOCC4)CC3)c3c2OCCO3)nc2[nH]cc(C(F)(F)F)c12` [Example 238, (8-((4-(methylamino)-5-(trifluoromethyl)-7H-pyrrolo[2,3-d]pyrimidin-2-yl)amino)-2,3-dihydrobenzo[b][1,4]dioxin-5-yl)(4-morpholinopiperidin-1-yl)methanone]: the IC50 at LRRK2, on human GST-DYRK1A and on LRRK2 (G2019S) was below 100 nM each time.
For `CCNc1nc(Nc2ccc(C(=O)N3CCC(N4C[C@@H]5C[C@H]4CO5)CC3)c3c2OCC3)nc2[nH]cc(C(F)(F)F)c12` [Example 468], the IC50 against LRRK2, on human GST-DYRK1A and at LRRK2 (G2019S) was below 100 nM in each case.
`O=C(c1ccc(Nc2nc(NCC3CC3)c3c(C(F)(F)F)c[nH]c3n2)c2c1CCO2)N1CCC(N2CCOCC2)CC1` [Example 461, (7-((4-((cyclo-propylmeth-yl)amino)-5-(trifluoromethyl)-7H-pyrrolo[2,3-d]pyrimidin-2-yl)amino)-2,3-dihydrobenzo-furan-4-yl)(4-morpho-linopiperidin-1-yl)methanone]: the IC50 at LRRK2, on human GST-DYRK1A and at LRRK2 (G2019S) was below 100 nM each time.
On to `CCCNc1nc(Nc2ccc(C(=O)N3CCC(N4CCOCC4)CC3)c3c2OCCO3)nc2[nH]cc(C#N)c12` [Example 138, 2-((8-(4-morpholinopiperidine-1-carbonyl)-2,3-dihydrobenzo[b][1,4]dioxin-5-yl)amino)-4-(propylamino)-7H-pyrrolo[2,3-d]pyrimidine-5-carbonitrile], for which the IC50 is below 100 nM against LRRK2, 101 to 300 nM at human GST-DYRK1A and below 100 nM on LRRK2 (G2019S).
For `C=CCNc1nc(Nc2ccc(S(=O)(=O)N3CCC(N4CCOCC4)CC3)cc2OC)nc2[nH]cc(C#N)c12` [Example 361, 4-(allylamino)-2-((2-methoxy-4-((4-morpholino-piperidin-1-yl)sulfonyl)phenyl)amino)-7H-pyrrolo[2,3-d]pyrimidine-5-carbonitrile], the values for the IC50 against LRRK2, on human GST-DYRK1A and at LRRK2 (G2019S) were below 100 nM, 301 to 1000 nM and below 100 nM, respectively.
As for `CCNc1nc(Nc2ccc(C(=O)N3CC[C@H](N4CCOCC4)C3)c3c2OCC3)nc2[nH]cc(C(F)(F)F)c12` [Example 475, (S)-(7-((4-(ethylamino)-5-(trifluoromethyl)-7H-pyrrolo[2,3-d]pyrimidin-2-yl)amino)-2,3-dihydrobenzo-furan-4-yl)(3-morpholino-pyrrolidin-1-yl)methanone], the IC50 on LRRK2, at human GST-DYRK1A and against LRRK2 (G2019S) was below 100 nM throughout.
